According to US9096639B2, “17-hydroxy-17-pentafluorethyl-estra-4,9(10)-dien-11-acyloxyalkylene phenyl derivatives, methods for the production thereof and use thereof for treating diseases” (Bayer Intellectual Property GmbH, priority 2009, dated 2015):
pIC50: −log10 of the molar value.

Tests used:
[1] = Determination of hydrolytic stability (5:1 dioxane/buffer, HPLC); type: physicochemical; conditions: 5:1 dioxane/buffer solution, test ended after 24 or 192 hours, read-out: Hydrolytic stability t1/2
Description: The ester to be analyzed was dissolved in each case in a 5:1 mixture of dioxane and buffer solution (pH 1.2, pH 5.0 or pH 8.0) at 23° C. At different times, the content of ester and hydrolysis products (8S,11R,13S,14S,1 7S)-17-hydroxy-11-[4-((R)-1-hydroxyethyl)phenyl]-13-methyl-17-pentafluoroethyl-1,2,6,7,8,11,12,13,14,15,16,17-dodecahydrocyclopenta[a]phenanthren-3-one and/or (8S,11R,13S,14S,17S)-17-hydroxy-11-[4-((S)-1-hydroxyethyl)phenyl]-1 3-methyl-17-pentafluoroethyl-1,2,6,7,8,11,12,13,14,15,16,17-dodecahydrocyclopenta[a]phenanthren-3-one was determined by HPLC. The test was ended after 24 hours or 192 hours.

[2] = Determination of stability in human plasma; type: in vitro ADME
Description: (§1) A stock solution of 1.0 mg of the substance to be tested in a 9:1 mixture of acetonitrile and dimethyl sulphoxide was prepared. 20 μl of this stock solution were added at 37° C. to 1 ml of human plasma or rat plasma. To determine the content, 100 μl samples were each taken at different times. The enzyme activity was blocked by adding 300 μl of acetonitrile, the samples were centrifuged at 5000 rpm over 10 minutes and, in the supernatant, the content of ester and hydrolysis products (8S,11R,13S,14S,17S)-17-hydroxy-11-[4-((R)-1-hydroxyethyl)phenyl]-1 3-methyl-17-pentafluoroethyl-1,2,6,7,8,11,12,13,14,15,16,17-dodecahydrocyclopenta[a]phenanthren-3-one and/or (8S,11R,13S,14S,17S)-17-hydroxy-11-[4-((S)-1-hydroxyethyl)phenyl]-13-methyl-17-pentafluoroethyl-1,2,6,7,8,11,12,13,14,15,16,17-dodecahydrocyclopenta[a]phenanthrene-3-one was determined by HPLC. The concentration-time curves were used to calculate the degradation kinetics. The stability of the substance tested was reported as the half-life.

[3] = Determination of stability in rat plasma; type: in vitro ADME; conditions: 37° C., read-out: Stability t1/2 in rat plasma (converted)
Description: as §1

[4] = biological target: T1, human progesterone receptor A (Homo sapiens, UniProt P06401); test: Progesterone receptor transactivation test in stably transfected SK-N-MC cells (PR-A, MMTV-LUC reporter); type: cell-based; conditions: 0.1 nmol/l promegestone, 24 hours, read-out: PR-A IC50 (antagonistic potency)
T1 construct: expressed in transfected cells; host or cells: SK-N-MC human neuroblastoma cells, stably transfected with pRChPR-A-neo and pMMTV-LUC
T1 sequence (P06401 1-769 isoform P06401-2): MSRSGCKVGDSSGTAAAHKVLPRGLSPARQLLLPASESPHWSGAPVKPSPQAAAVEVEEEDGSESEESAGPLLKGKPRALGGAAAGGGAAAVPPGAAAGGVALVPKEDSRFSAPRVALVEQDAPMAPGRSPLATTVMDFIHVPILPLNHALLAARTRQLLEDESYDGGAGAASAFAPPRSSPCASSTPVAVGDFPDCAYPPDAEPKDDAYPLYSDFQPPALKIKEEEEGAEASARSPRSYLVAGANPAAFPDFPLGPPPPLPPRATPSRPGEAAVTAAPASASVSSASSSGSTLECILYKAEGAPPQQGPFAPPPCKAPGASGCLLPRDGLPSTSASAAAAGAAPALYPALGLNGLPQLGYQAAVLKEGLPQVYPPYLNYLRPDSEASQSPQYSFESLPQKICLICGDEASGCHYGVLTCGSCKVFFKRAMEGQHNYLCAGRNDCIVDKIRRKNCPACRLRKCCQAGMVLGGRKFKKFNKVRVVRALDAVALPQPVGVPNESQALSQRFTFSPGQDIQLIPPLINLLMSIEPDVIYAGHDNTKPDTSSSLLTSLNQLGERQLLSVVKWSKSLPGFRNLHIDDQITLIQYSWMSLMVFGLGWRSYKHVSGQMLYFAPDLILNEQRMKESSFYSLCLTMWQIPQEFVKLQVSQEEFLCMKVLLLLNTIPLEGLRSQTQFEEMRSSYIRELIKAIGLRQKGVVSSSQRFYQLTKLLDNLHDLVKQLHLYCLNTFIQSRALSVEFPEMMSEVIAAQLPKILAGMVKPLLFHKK
Description: (§2) Progesterone receptor-antagonistic action in stable transfectants of human neuroblastoma cells (SK-N-MC cells) with the human progesterone A or progesterone B receptor and an MN-LUC reporter construct SK-N-MC cells (human neuroblastoma cells) which have been stably transfected with plasmids expressing the human progesterone receptor B (pRChPR-B-neo) or the human progesterone receptor A (pRChPR-A-neo) and a reporter construct (pMMTV-LUC) were incubated for 24 hours either in the absence (negative control) or in the presence of ascending amounts of the particular test compound (0.01 nmol/l, 0.1 nmol/l, 1 […], 100 nmol/l and […]), in order to determine the agonistic efficacy. As a positive control of the reporter gene induction, the cells were treated with the synthetic gestagen promegestone (0.01 nmol/l, 0.1 nmol/l, 1 nmol/l, 10 nmol/l, 100 nmol/l and […]). To determine the antagonistic activity, the cells were treated with 0.1 nmol/l promegestone and additionally with ascending amounts of the particular test compound (0.01 nmol/l, 0.1 nmol/l, 1 nmol/l, 10 nmol/l, 100 nmol/l and […]). The activity of the reporter gene LUC (LUC=luciferase) was determined in the cell lysates and measured as RLU (relative light units). All measurements are reported as % efficacy and as EC50 and IC50 concentrations.

[5] = biological target: T2, human progesterone receptor B (Homo sapiens, UniProt P06401); test: Progesterone receptor transactivation test in stably transfected SK-N-MC cells (PR-B, MMTV-LUC reporter); type: cell-based; conditions: 0.1 nmol/l promegestone, 24 hours, read-out: PR-B IC50 (antagonistic potency)
T2 construct: expressed in transfected cells; host or cells: SK-N-MC human neuroblastoma cells, stably transfected with pRChPR-B-neo and pMMTV-LUC
T2 sequence (P06401 1-933): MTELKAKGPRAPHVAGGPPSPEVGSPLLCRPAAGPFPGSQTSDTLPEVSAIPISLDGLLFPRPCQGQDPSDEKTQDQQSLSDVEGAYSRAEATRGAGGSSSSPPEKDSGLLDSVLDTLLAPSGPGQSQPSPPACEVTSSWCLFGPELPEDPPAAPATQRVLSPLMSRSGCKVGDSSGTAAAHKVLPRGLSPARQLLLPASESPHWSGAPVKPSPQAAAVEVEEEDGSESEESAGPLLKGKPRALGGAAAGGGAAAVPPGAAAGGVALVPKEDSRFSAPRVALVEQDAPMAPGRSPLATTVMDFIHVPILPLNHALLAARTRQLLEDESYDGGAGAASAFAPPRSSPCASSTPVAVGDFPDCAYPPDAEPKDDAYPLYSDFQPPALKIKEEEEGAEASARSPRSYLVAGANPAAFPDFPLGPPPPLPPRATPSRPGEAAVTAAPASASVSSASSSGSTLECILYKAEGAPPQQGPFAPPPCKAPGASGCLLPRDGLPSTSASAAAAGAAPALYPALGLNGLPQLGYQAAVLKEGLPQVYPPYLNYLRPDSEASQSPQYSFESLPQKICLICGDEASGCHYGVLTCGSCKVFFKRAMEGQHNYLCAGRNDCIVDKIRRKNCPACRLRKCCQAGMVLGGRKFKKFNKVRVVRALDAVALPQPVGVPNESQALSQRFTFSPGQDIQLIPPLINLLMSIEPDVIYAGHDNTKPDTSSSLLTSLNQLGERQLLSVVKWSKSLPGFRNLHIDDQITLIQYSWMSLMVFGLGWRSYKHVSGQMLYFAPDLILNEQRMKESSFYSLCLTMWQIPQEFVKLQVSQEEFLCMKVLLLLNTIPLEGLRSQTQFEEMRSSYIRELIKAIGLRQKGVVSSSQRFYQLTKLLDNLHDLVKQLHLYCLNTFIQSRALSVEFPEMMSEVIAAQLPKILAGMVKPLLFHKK
Description: as §2

- half-life ([1]; pH = 1.2, 23° C.): > 8 days
- half-life ([1]; pH = 8.0, 23° C.): > 8 days
- half-life ([2]; 37° C., read-out: Stability t1/2 in human plasma (converted)): 5.46 days
- half-life ([2]; method of working example 19, summary statement in description, read-out: half-life in human plasma): > 4.17 days
- half-life [3]: 72 min
- pIC50 [4]: 10.00
- pIC50 [5]: 10.00
Compound: CC(OC(=O)CCc1nccs1)c1ccc([C@H]2C[C@@]3(C)C(CC[C@@]3(O)C(F)(F)C(F)(F)F)C3CCC4=CC(=O)CCC4=C32)cc1 (mixture of isomers) [Example 15, 3-Thiazol-2-ylpropionic acid (RS)-1-[4-((8S,11R,13S,14S,17S)-17-hydroxy-13-methyl-3-oxo-17-pentafluoroethyl-2,3,6,7,8,11,12,13,14,15,16,17-dodecahydro-1H-cyclopenta[a]phenanthren-11-yl)phenyl]ethyl ester]
